Laboratory results taken from patent US6686478B2, “Thienylsulphonylamino(thio)carbonyl compounds” (Bayer Aktiengesellschaft, priority 1996, dated 2004).

How the values were obtained:
weeds [1] = assay: Pre-emergence test, summary for weeds; assay type: in vivo; conditions: result in words
Description: (§1) Solvent: 5 parts by weight of acetone
(§2) Emulsifier: 1 part by weight of alkylaryl polyglycol ether
(§3) To produce a suitable preparation of active compound, 1 part by weight of active compound is mixed with the stated amount of solvent, the stated amount of emulsifier is added and the concentrate is diluted with water to the desired concentration.
(§4) Seeds of the test plants are sown in normal soil. After about 24 hours, the soil is watered with the preparation of the active compound. Advantageously, the amount of water per unit area is kept constant. The active compound concentration in the preparation is not important, only the active compound application rate per unit area is critical.
(§5) After three weeks, the degree of damage to the plants is rated in % damage in comparison with the development of the untreated control. The figures denote:
(§6) 0%=no effect (like untreated control)

Wheat = assay: Pre-emergence test/greenhouse; assay type: in vivo; conditions: greenhouse, 125 g of ai./ha, after three weeks, 0%=no effect, 100%=total destruction
Description: as §1, §2, §3, §4, §5, §6

Setaria [2] = assay: Pre-emergence test/greenhouse; assay type: in vivo; conditions: greenhouse, 125 g of ai./ha, after three weeks, 0%=no effect, 100%=total destruction
Description: as §1, §2, §3, §4, §5, §6

Matricaria = assay: Pre-emergence test/greenhouse; assay type: in vivo; conditions: greenhouse, 125 g of ai./ha, after three weeks, 0%=no effect, 100%=total destruction
Description: as §1, §2, §3, §4, §5, §6

Lolium = assay: Pre-emergence test/greenhouse; assay type: in vivo; conditions: greenhouse, 125 g of ai./ha, after three weeks, 0%=no effect, 100%=total destruction
Description: as §1, §2, §3, §4, §5, §6

Chenopodium = assay: Pre-emergence test/greenhouse; assay type: in vivo; conditions: greenhouse, 125 g of ai./ha, after three weeks, 0%=no effect, 100%=total destruction
Description: as §1, §2, §3, §4, §5, §6

Solanum = assay: Pre-emergence test/greenhouse; assay type: in vivo; conditions: greenhouse, 125 g of ai./ha, after three weeks, 0%=no effect, 100%=total destruction
Description: as §1, §2, §3, §4, §5, §6

Cyperus = assay: Pre-emergence test/greenhouse; assay type: in vivo; conditions: greenhouse, 125 g of ai./ha, after three weeks, 0%=no effect, 100%=total destruction
Description: as §1, §2, §3, §4, §5, §6

Bromus = assay: Pre-emergence test/greenhouse; assay type: in vivo; conditions: greenhouse, 125 g of ai./ha, after three weeks, 0%=no effect, 100%=total destruction
Description: as §1, §2, §3, §4, §5, §6

Setaria [3] = assay: Post-emergence test/greenhouse; assay type: in vivo; conditions: greenhouse, 250 g of ai/ha, after three weeks, 0%=no effect, 100%=total destruction
Description: as §1, §2, §3
(§7) Test plants which have a height of 5-15 cm are sprayed with the preparation of the active compound in such a way as to apply the particular amounts of active compound desired per unit area. The concentration of the spray liquor is chosen so that the amounts of active compound desired in each case are applied in 1000 l of water/ha.
(§8) After three weeks, the degree of damage to the plants is rated in % damage in comparison with the development of the untreated control.
as §6

Maize [4] = assay: Post-emergence test/greenhouse; assay type: in vivo; conditions: greenhouse, 250 g of ai/ha, after three weeks, 0%=no effect, 100%=total destruction
Description: as §1, §2, §3, §7, §8, §6

Sinapis [5] = assay: Post-emergence test/greenhouse; assay type: in vivo; conditions: greenhouse, 250 g of ai/ha, after three weeks, 0%=no effect, 100%=total destruction
Description: as §1, §2, §3, §7, §8, §6

Amaranthus [6] = assay: Post-emergence test/greenhouse; assay type: in vivo; conditions: greenhouse, 250 g of ai/ha, after three weeks, 0%=no effect, 100%=total destruction
Description: as §1, §2, §3, §7, §8, §6

weeds [7] = assay: Post-emergence test, summary for weeds; assay type: in vivo; conditions: result in words
Description: as §1, §2, §3, §7, §8, §6

Alopecurus = assay: Pre-emergence test/greenhouse; assay type: in vivo; conditions: greenhouse, 250 g of ai./ha, after three weeks, 0%=no effect, 100%=total destruction
Description: as §1, §2, §3, §4, §5, §6

Abutilon [8] = assay: Pre-emergence test/greenhouse; assay type: in vivo; conditions: greenhouse, 250 g of ai./ha, after three weeks, 0%=no effect, 100%=total destruction
Description: as §1, §2, §3, §4, §5, §6

Sinapis [9] = assay: Pre-emergence test/greenhouse; assay type: in vivo; conditions: greenhouse, 250 g of ai./ha, after three weeks, 0%=no effect, 100%=total destruction
Description: as §1, §2, §3, §4, §5, §6

Amaranthus [10] = assay: Pre-emergence test/greenhouse; assay type: in vivo; conditions: greenhouse, 250 g of ai./ha, after three weeks, 0%=no effect, 100%=total destruction
Description: as §1, §2, §3, §4, §5, §6

Abutilon [11] = assay: Post-emergence test/greenhouse; assay type: in vivo; conditions: greenhouse, 250 g of ai/ha, after three weeks, 0%=no effect, 100%=total destruction
Description: as §1, §2, §3, §7, §8, §6

Maize [12] = assay: Pre-emergence test/greenhouse; assay type: in vivo; conditions: greenhouse, 125 g of ai./ha, after three weeks, 0%=no effect, 100%=total destruction
Description: as §1, §2, §3, §4, §5, §6

Xanthium = assay: Pre-emergence test/greenhouse; assay type: in vivo; conditions: greenhouse, 250 g of ai./ha, after three weeks, 0%=no effect, 100%=total destruction
Description: as §1, §2, §3, §4, §5, §6

| SMILES | activity against weeds (weeds [1]) | degree of damage to the plants, Setaria (Setaria [2]) [%] | degree of damage to the plants, Matricaria (Matricaria) [%] | degree of damage to the plants, Lolium (Lolium) [%] | degree of damage to the plants, Chenopodium (Chenopodium) [%] | degree of damage to the plants, Solanum (Solanum) [%] | degree of damage to the plants, Cyperus (Cyperus) [%] | degree of damage to the plants, Bromus (Bromus) [%] | degree of damage to the plants, Setaria (Setaria [3]) [%] | degree of damage to the plants, Sinapis (Sinapis [5]) [%] | degree of damage to the plants, Amaranthus (Amaranthus [6]) [%] | activity against weeds (weeds [7]) | also measured |
| --- | --- | --- | --- | --- | --- | --- | --- | --- | --- | --- | --- | --- | --- |
| CCOc1nn(C(=O)NS(=O)(=O)c2c(C)csc2C)c(=O)n1C [Example 1, 5-ethoxy-4-methyl-2-(2,4-dimethyl-thien-3-yl-sulphonylaminocarbonyl)-2,4-dihydro-3H-1,2,4-triazol-3-one] | very strong activity | 100 | 100 | 100 | 100 | 100 | 95 | 100 | – | – | – | – | melting point: 158 °C; degree of damage to the plants, Wheat (Wheat): 0% |
| C#CCSc1nn(C(=O)NS(=O)(=O)c2c(C)csc2C)c(=O)n1C [Example 14] | – | – | – | – | – | – | – | – | 90 | 95 | 95 | very strong activity | degree of damage to the plants, Maize (Maize [4]): 10% |
| CCOc1nn(C(=O)NS(=O)(=O)c2c(C)csc2C)c(=O)n1C1CC1 [Example 12] | very strong activity | – | – | – | – | – | – | – | – | – | – | – | degree of damage to the plants, Alopecurus (Alopecurus): 70%; degree of damage to the plants, Abutilon (Abutilon [8]): 90%; degree of damage to the plants, Sinapis (Sinapis [9]): 95%; degree of damage to the plants, Amaranthus (Amaranthus [10]): 90% |
| Cc1nc(C(=O)NS(=O)(=O)c2c(C)csc2C)no1 [Example 2, N-(2,4-dimethyl-thien-3-yl-sulphonyl)-5-methyl-1,2,4-oxadiazol-3-carboxamide] | – | – | – | – | – | – | – | – | – | – | – | – | melting point: 164 °C |
| Cc1csc(C)c1S(=O)(=O)NC(=O)n1nc(OC(C)C)n(C)c1=O [Example 6] | – | – | – | – | – | – | – | – | 80 | 100 | 90 | very strong activity | degree of damage to the plants, Maize (Maize [4]): 10% |
| CCOc1nn(C(=O)NS(=O)(=O)c2c(C)csc2C)c(=O)n1CC [Example 13] | – | – | – | – | – | – | – | – | 80 | 100 | 100 | very strong activity | degree of damage to the plants, Abutilon (Abutilon [11]): 80% |
| CCc1nn(C(=O)NS(=O)(=O)c2c(C)csc2C)c(=O)n1C [Example 3] | very strong activity | 100 | 100 | 100 | 100 | 100 | 100 | 100 | – | – | – | – | degree of damage to the plants, Maize (Maize [12]): 5% |
| CSc1nn(C(=O)NS(=O)(=O)c2c(C)csc2C)c(=O)n1C [Example 4] | very strong activity | 100 | 90 | 100 | 90 | 80 | 95 | 95 | – | – | – | – | degree of damage to the plants, Wheat (Wheat): 0%; degree of damage to the plants, Maize (Maize [12]): 0% |
| CCCOc1nn(C(=O)NS(=O)(=O)c2c(C)csc2C)c(=O)n1C [Example 5] | very strong activity | – | – | – | – | – | – | – | – | – | – | – | degree of damage to the plants, Alopecurus (Alopecurus): 70%; degree of damage to the plants, Xanthium (Xanthium): 90%; degree of damage to the plants, Abutilon (Abutilon [8]): 90%; degree of damage to the plants, Sinapis (Sinapis [9]): 95%; degree of damage to the plants, Amaranthus (Amaranthus [10]): 90% |
| COc1nn(C(=O)NS(=O)(=O)c2c(C)csc2C)c(=O)n1C [Example 11] | very strong activity | 100 | 100 | 100 | 95 | 95 | 100 | 100 | – | – | – | – | – |
